This note sets out measurements from patent US10899738B2 (THE REGENTS OF THE UNIVERSITY OF MICHIGAN, priority 2016, dated 2021).

menin protein, sequence (O00255 whole entry): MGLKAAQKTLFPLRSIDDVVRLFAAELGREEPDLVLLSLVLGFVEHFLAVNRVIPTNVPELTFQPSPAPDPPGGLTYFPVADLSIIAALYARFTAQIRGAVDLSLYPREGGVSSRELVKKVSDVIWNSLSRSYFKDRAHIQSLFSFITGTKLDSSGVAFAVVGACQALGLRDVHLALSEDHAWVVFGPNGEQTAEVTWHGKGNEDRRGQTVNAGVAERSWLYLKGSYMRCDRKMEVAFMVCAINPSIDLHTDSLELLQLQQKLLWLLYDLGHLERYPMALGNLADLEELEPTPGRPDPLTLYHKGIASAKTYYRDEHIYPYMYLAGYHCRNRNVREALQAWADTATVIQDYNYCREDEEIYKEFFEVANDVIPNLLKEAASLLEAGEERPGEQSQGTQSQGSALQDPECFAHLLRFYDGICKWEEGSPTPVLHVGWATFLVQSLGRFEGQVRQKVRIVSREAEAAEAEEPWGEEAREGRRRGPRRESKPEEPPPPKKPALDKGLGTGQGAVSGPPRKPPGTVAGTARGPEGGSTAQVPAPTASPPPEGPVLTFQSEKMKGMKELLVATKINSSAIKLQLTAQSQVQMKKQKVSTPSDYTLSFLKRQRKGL

In the first test the target is menin protein (Homo sapiens (Human), UniProt O00255). Kind of test: biochemical. The test is classed as binding. Particulars: FP competitive binding; menin protein 4 nM, FAM-MM2 probe 2 nM. The procedure, abridged:
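Test compounds displaced FAM-MM2 (2 nM) from 4 nM menin after 30 min equilibration at room temperature in PBS buffer containing bovine γ-globulin, 4% DMSO and Triton X-100. Binding was followed by fluorescence polarization. Competition curves were fitted by nonlinear regression to give IC50 and Ki.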
Take `CCN1Cc2ccccc2C(C2CCCC2)(C2CCN(S(=O)(=O)C3CN(c4ccc(C#N)cc4)C3)CC2)C1` (centres unmarked) [compound 159, 4-(3-((4-(4-cyclopentyl-2-ethyl-1,2,3,4-tetrahydroisoquinolin-4-yl)piperidin-1-yl)sulfonyl)azetidin-1-yl)benzonitrile]: the “Menin Binding Affinity IC50 (μM)” value is reported as “No inhibition”.

The same test, now with this note: FP competitive binding; menin protein 4 nM, FAM-MM2 probe 2 nM; read-out: Menin Binding Affinity IC50.
By IC50 is commonly meant the midpoint of a concentration-inhibition curve. On to `CNC(=O)N[C@@H]1CCC[C@H]1C(C#N)(c1ccccc1)C1CCN(CCCOc2ccc(C#N)cc2)CC1` (mixture of isomers) [compound 318, rac-1-((1R,2S)-2-(cyano(1-(3-(4-cyanophenoxy)propyl)piperidin-4-yl)(phenyl)methyl)cyclopentyl)-3-methylurea], for which the IC50 came to 20.9 µM. With `O=S(=O)(c1ccc(N2CC(CN3CCC(C4(C5CCCC5)CN(CCF)Cc5ccccc54)CC3)C2)cc1)C1CC1` (centres unmarked) [compound 47, 4-cyclopentyl-4-(1-((1-(4-(cyclopropylsulfonyl)phenyl)azetidin-3-yl)methyl)piperidin-4-yl)-2-(2-fluoroethyl)-1,2,3,4-tetrahydroisoquinoline], the IC50 was found to be 0.137 µM.

With `N#Cc1ccc(NCCCN2CCC(C3(C4CCCC4)NCCc4ccccc43)CC2)cn1` (centres unmarked) [compound 59, 5-((3-(4-(1-cyclopentyl-1,2,3,4-tetrahydroisoquinolin-1-yl)piperidin-1-yl)propyl)amino)picolinonitrile], the IC50 is 2.3 µM.

With `CN1Cc2ccccc2C(C2CCCC2)(C2CCN(CCCOc3ccc(S(C)(=O)=O)cc3)CC2)C1` (centres unmarked) [compound 68, 4-cyclopentyl-2-methyl-4-(1-(3-(4-(methylsulfonyl)phenoxy)propyl)piperidin-4-yl)-1,2,3,4-tetrahydroisoquinoline], the IC50 stood at 0.181 µM. `CNC(=O)O[C@@H]1CCC[C@H]1C(Cn1ccnc1C)(c1cccc(F)c1)C1CCN(CC2CN(c3ccc(Cl)cc3)C2)CC1` (mixture of isomers) [compound 414, rac-(1R,2S)-2-(1-(1-((1-(4-chlorophenyl)azetidin-3-yl)methyl)piperidin-4-yl)-1-(3-fluorophenyl)-2-(2-methyl-1H-imidazol-1-yl)ethyl)cyclopentyl methylcarbamate]: the IC50 worked out at 0.539 µM. `N#Cc1ccc(OCCCN2CCC(C3NCCc4ccccc43)CC2)cc1` (centres unmarked) [compound 305, 4-(3-(4-(1,2,3,4-tetrahydroisoquinolin-1-yl)piperidin-1-yl)propoxy)benzonitrile]: the IC50 stood at 42.1 µM. Take `CO[C@H]1CCC[C@@H]1C1(C2CCN(CCCOc3ccc(C#N)cc3)CC2)CN(C)Cc2ccccc21` (mixture of isomers) [compound 325, rac-4-(3-(4-(4-((1R,2S)-2-methoxycyclopentyl)-2-methyl-1,2,3,4-tetrahydroisoquinolin-4-yl)piperidin-1-yl)propoxy)benzonitrile]: the IC50 was 1.8 µM.

As to `CNC(=O)O[C@H]1CCC[C@@H]1C(Cn1ccnc1)(c1ccccc1)C1CCN(CC2CN(c3ccc(S(=O)(=O)c4ccccc4)cc3)C2)CC1` (mixture of isomers) [compound 236, rac-(1S,2R)-2-(2-(1H-imidazol-1-yl)-1-phenyl-1-(1-((1-(4-(phenylsulfonyl)phenyl)azetidin-3-yl)methyl)piperidin-4-yl)ethyl)cyclopentyl methylcarbamate], the IC50 was determined as 0.012 µM. Consider `CNC(=O)O[C@H]1CCC[C@@H]1C(Cn1ccnc1)(c1ccccc1)C1CCN(CC2CN(c3ccc(C(F)(F)F)cc3)C2)CC1` (mixture of isomers) [compound 421, rac-(1S,2R)-2-(2-(1H-imidazol-1-yl)-1-phenyl-1-(1-((1-(4-(trifluoromethyl)phenyl)azetidin-3-yl)methyl)piperidin-4-yl)ethyl)cyclopentyl methylcarbamate], for which the IC50 was found to be 0.004 µM. As to `N#Cc1ccc(NCCCN2CCC(C3(C4CCCC4)NCCc4ccccc43)CC2)cc1` (centres unmarked) [compound 58, 4-((3-(4-(1-cyclopentyl-1,2,3,4-tetrahydroisoquinolin-1-yl)piperidin-1-yl)propyl)amino)benzonitrile], the IC50 worked out at 0.241 µM.

Turning to `CNC(=O)N[C@@H]1CCC[C@H]1C(C#N)(c1ccccc1)C1CCN(CC2CN(c3ccc(S(=O)(=O)c4ccncc4)cc3)C2)CC1` (mixture of isomers) [compound 270, rac-1-((1R,2S)-2-(cyano(phenyl)(1-((1-(4-(pyridin-4-ylsulfonyl)phenyl)azetidin-3-yl)methyl)piperidin-4-yl)methyl)cyclopentyl)-3-methylurea], the IC50 turned out to be 0.881 µM. `CO[C@@H]1CCC[C@H]1C(C#N)(c1ccccc1)C1CCN(CC2CN(c3ccc(S(C)(=O)=O)cc3)C2)CC1` (mixture of isomers) [compound 180, rac-2-((1S,2R)-2-methoxycyclopentyl)-2-(1-((1-(4-(methylsulfonyl)phenyl)azetidin-3-yl)methyl)piperidin-4-yl)-2-phenylacetonitrile]: the IC50 was 9.7 µM.

`CC(=O)N[C@@H]1CCC[C@H]1C(C#N)(c1ccccc1)C1CCN(CC2CN(c3ccc(S(=O)(=O)C4CC4)cc3)C2)CC1` (mixture of isomers) [compound 282, rac-N-((1R,2S)-2-(cyano(1-((1-(4-(cyclopropylsulfonyl)phenyl)azetidin-3-yl)methyl)piperidin-4-yl)(phenyl)methyl)cyclopentyl) acetamide]: the IC50 is 3.3 µM.

For the compound `CS(=O)(=O)c1ccc(N2CC(CN3CCC(C(C#N)(c4ccccc4)[C@H]4CCC[C@@H]4O)CC3)C2)cc1` (mixture of isomers) [compound 178, rac-2-((1R,2S)-2-hydroxycyclopentyl)-2-(1-((1-(4-(methylsulfonyl)phenyl)azitidin-3-yl)methyl)piperidin-4-yl)-2-phenylacetonitrile], the half-maximal inhibitory concentration (IC50) came to 6.5 µM. The same measure, in the same setting: next, `N#CC(c1ccccc1)(C1CCN(CC2CN(c3ccc(S(=O)(=O)c4ccncc4)cc3)C2)CC1)[C@@H]1CCC[C@H]1OC(=O)N1CCC1` (mixture of isomers) [compound 222, rac-(1R,2S)-2-(cyano(phenyl)(1-((1-(4-(pyridin-4-ylsulfonyl)phenyl)azetidin-3-yl)methyl)piperidin-4-yl)methyl)cyclopentyl azetidine-1-carboxylate]: 2 µM; `N#Cc1ccc(OCCCN2CCC(C3(C4CCc5ccccc54)NCCc4ccccc43)CC2)cc1` (centres unmarked) [compound 244, 4-(3-(4-(1-(2,3-dihydro-1H-inden-1-yl)-1,2,3,4-tetrahydroisoquinolin-1-yl)piperidin-1-yl)propoxy)benzonitrile]: 2.3 µM. Same read-out and setting: the result for `N#Cc1ccc2[nH]c(CCN3CCC(C4(C5CCCC5)NCCc5ccccc54)CC3)cc2c1` (centres unmarked) [compound 67, 2-(2-(4-(1-cyclopentyl-1,2,3,4-tetrahydroisoquinolin-1-yl)piperidin-1-yl)ethyl)-1H-indole-5-carbonitrile] reads 1.2 µM. Regarding `CN1COCN([C@@H]2CCC[C@H]2C(C#N)(c2ccccc2)C2CCN(CC3CN(c4ccc(S(=O)(=O)c5ccncc5)cc4)C3)CC2)C1=O` (mixture of isomers) [compound 280, rac-2-((1S,2R)-2-(5-methyl-4-oxo-1,3,5-oxadiazinan-3-yl)cyclopentyl)-2-phenyl-2-(1-((1-(4-(pyridin-4-ylsulfonyl)phenyl)azetidin-3-yl)methyl)piperidin-4-yl)acetonitrile], the IC50 was found to be 1.4 µM.

With `CN(C)S(=O)(=O)c1ccc(N2CC(CN3CCC(C4(C5CCCC5)NCCc5ccccc54)CC3)C2)cc1` (centres unmarked) [compound 88, 4-(3-((4-(1-cyclopentyl-1,2,3,4-tetrahydroisoquinolin-1-yl)piperidin-1-yl)methyl)azetidin-1-yl)-N,N-dimethylbenzenesulfonamide], the IC50 was 0.075 µM.

`N#CC(c1ccccc1)(C1CCN(CC2CN(c3ccc(S(=O)(=O)c4ccncc4)cc3)C2)CC1)[C@@H]1CCC[C@H]1CO` (mixture of isomers) [compound 257, rac-2-((1R,2R)-2-(hydroxymethyl)cyclopentyl)-2-phenyl-2-(1-((1-(4-(pyridin-4-ylsulfonyl)phenyl)azetidin-3-yl)methyl)piperidin-4-yl)acetonitrile]: the IC50 amounted to 4.6 µM.

`CO[C@H]1CCC[C@@H]1C1(C2CCN(CCCOc3ccc(C(=O)O)cc3)CC2)CNCc2ccccc21` (mixture of isomers) [compound 328, rac-4-(3-(4-(4-((1R,2S)-2-methoxycyclopentyl)-1,2,3,4-tetrahydroisoquinolin-4-yl)piperidin-1-yl)propoxy)benzoic acid]: the 50% inhibitory concentration (IC50) was found to be 119 µM. For `N#Cc1ccc(N2CC(CN3CCC(C4(C5CCCC5)NCCc5ccccc54)CC3)C2)cc1` (centres unmarked) [Cpd. No. 129, 4-(3-((4-(1-cyclopentyl-1,2,3,4-tetrahydroisoquinolin-1-yl)piperidin-1-yl)methyl)azetidin-1-yl)benzonitrile], the concentration for half-maximal inhibition (IC50) came to 0.036 µM. With `CS(=O)(=O)CO[C@@H]1CCC[C@H]1C(C#N)(c1ccccc1)C1CCN(CC2CN(c3ccc(S(=O)(=O)c4ccncc4)cc3)C2)CC1` (mixture of isomers) [compound 254, rac-2-((1S,2R)-2-((methylsulfonyl)methoxy)cyclopentyl)-2-phenyl-2-(1-((1-(4-(pyridin-4-ylsulfonyl)phenyl)azetidin-3-yl)methyl)piperidin-4-yl)acetonitrile], the IC50 came out at 23.2 µM. In the case of `CNC(=O)O[C@@H]1CCC[C@H]1C(Cn1cccc1)(c1ccccc1)C1CCN(CC2CN(c3ccc(S(=O)(=O)c4ccccc4)cc3)C2)CC1` (mixture of isomers) [compound 358, rac-(1R,2S)-2-(1-phenyl-1-(1-((1-(4-(phenylsulfonyl)phenyl)azetidin-3-yl)methyl)piperidin-4-yl)-2-(1H-pyrrol-1-yl)ethyl)cyclopentyl methylcarbamate], the IC50 is 0.221 µM. Regarding `CNC(=O)O[C@@H]1CCC[C@H]1C(C#N)(c1ccccc1)C1CCN(CC2CN(c3ccc(C(=O)OC)cc3)C2)CC1` (mixture of isomers) [compound 374, methyl rac-4-(3-((4-(cyano((1S,2R)-2-((methylcarbamoyl)oxy)cyclopentyl)(phenyl)methyl)piperidin-1-yl)methyl)azetidin-1-yl)benzoate], the IC50 was determined as 4.7 µM.
